# Legend:
# [1] = tested on: Sox2 foci at the Pou5f1 locus; experiment: Sox2 cluster signal at Pou5f1 upon inhibition (live-cell confocal/STED scans); assay type: cell-based, mouse; details: 1 μM JQ1 or 10 μM Flavopiridol
# Text: Contrary to Brd4, Med22 and Cdk9, Sox2 clustering persists through transcription inhibition by either JQ1 or FVP (FIG. 8D). The differential sensitivities between factors and modes of transcription inhibition unveil a hierarchy of molecular transactions that control Pou5f1 transcription: Sox2 binding occurs upstream of Cdk9/Med22/Brd4 recruitment and accumulation of all of 4 regulatory factors occurs upstream of Pol II release into productive elongation. […] For real-time confocal and STED imaging, example implementations may program the wave generator to scan 2 μm×2 μm or 1 μm×1 μm xy areas in 0.8 sec or 0.2 sec respectively. 3D scanning was performed (via, e.g., detection system 150) by acquiring 5 xy scans while moving the stage by 0.5 μm in z between scans. TTL pulses corresponding to single-photon events from the APDs, together with the trigger pulses from the wave generator were detected using a field-programmable gate array (FPGA) data acquisition system (National Instruments, PCIe-7852R). Before imaging, cells were seeded onto 8-chamber coverglass (LabTek, 155411) coated with 5 μg/ml laminin (BioLamina LN511), in -2i media (OMG) or +2i media (NMG) and appropriate drugs. For SiR staining, cells were labeled with media containing 0.3 μM SiR-BG for 10 mins, at 37° C., followed by three washes with new media. Targeted integration of SNAP-tag in the endogenous Sox2, Cdk9, Brd4 and Med22 genes. To generate OMG or NMG SNAP-Sox2 targeted cells, OMG-1 or NMG mESCs (1×106) were transfected with 10 μg SNAP-Sox2 donor vector and 0.6 μg […] vector. 10 days after transfection, the cells were trypsinized, labeled with 0.3 μM SiR-BG for 10 mins, rinsed three times with new media, followed by immediate fluorescence-activated cell sorting (FACS). All the SiR-positive cells were collected, expanded for 2 weeks, trypsinized, labeled with SiR-BG and sorted again. Almost 100% SNAP positive pools were obtained from the second round of sorting and individual clones were picked and expanded. Homozygous clones (dubbed “OMG SNAP-Sox2 clone 8” and NMG SNAP-Sox2 clone 3'' respectively) with both Sox2 alleles correctly targeted with SNAP-tag integrations and that show SiR nuclear staining were selected for all further experiments.
# [2] = tested on: Med22 foci at the Pou5f1 locus; experiment: Med22 cluster signal at Pou5f1 upon inhibition (live-cell confocal/STED scans); assay type: cell-based, mouse; details: 1 μM JQ1 or 10 μM Flavopiridol
# Procedure: Before imaging, cells were seeded onto 8-chamber coverglass (LabTek, 155411) coated with 5 μg/ml laminin (BioLamina LN511), in −2i media (OMG) or +2i media (NMG) and appropriate drugs. For SiR staining, cells were labeled with media containing 0.3 μM SiR-BG for 10 mins, at 37° C., followed by three washes with new media.
# [3] = tested on: CMV mini-gene transcription site (tdPCP-EGFP nascent RNA); experiment: tdPCP-EGFP nascent transcription dynamics at the CMV mini-gene after inhibitor addition (wide-field live-cell imaging); assay type: cell-based, human; details: U-2 OS cells, after adding 10 μM flavopiridol or 10 μM triptolide, individual transcription site traces, mean±S.D.
# Text: It can be observed that Pol II accumulates at sites of active nascent transcription. Example implementations may first image Pol II dynamics relative to transcription from a single promoter in a synthetic “mini-gene” system, stably integrated as single copies in U-2 OS cells (FIGS. 4A, 11A-11C). Example implementations may track nascent RNA production via phage PP7-derived stem-loops (24×PP7) and a tandem-dimer phage coat protein EGFP fusion (tdPCP-EGFP).
# It can be observed in various embodiments that target-locking enables tracking Pol II dynamics during the transcription cycle. […]
# Wide-Field Cell Imaging Experiments. […] The CCD data were analyzed using IDL 6.4 (ITTVIS). Maximum projection images were calculated for each stack, and the resulting 11 sec/frame movie was used to track the intensities of individual tdPCP-EGFP-tagged transcription sites. […] The auto-correlation function was calculated (for the tdPCP-EGFP fluctuation analysis), or the data were imported in Origin 8.5.0 (OriginLab) and the trace fitted to a single-exponential decay (for the transcription inhibition experiments).
SMILES,Sox2 clustering at Pou5f1 upon transcription inhibition [1],Med22 signal at Pou5f1 upon inhibition [2],tdPCP-EGFP exponential decay time [3] [s]
Cc1sc2c(c1C)C(c1ccc(Cl)cc1)=N[C@@H](CC(=O)OC(C)(C)C)c1nnc(C)n1-2 [JQ1],persists,drop close to noise-floor,
CC(C)[C@]12O[C@H]1[C@@H]1O[C@]13[C@]1(O[C@H]1C[C@H]1C4=C(CC[C@@]13C)C(=O)OC4)[C@@H]2O [triptolide],,,179 ± 57
CN1CC[C@H](c2c(O)cc(O)c3c(=O)cc(-c4ccccc4Cl)oc23)[C@H](O)C1 [flavopiridol],persists,not lost,132 ± 38
